Data as given in PMC9863987, “Identification of Aryl Polyamines Derivatives as Anti-Trypanosoma cruzi Agents Targeting Iron Superoxide Dismutase” (Pharmaceutics, 2022).
Where a name gives a salt, the structure may show the parent alone.

Assays:
[1] = tested on: T. cruzi SN3 strain epimastigotes; test: Screening against extracellular epimastigotes, SN3 strain (resazurin); assay type: cell-based, Trypanosoma cruzi; conditions: for IC50: Trypanosoma cruzi, epimastigotes, 48 h treatment + 24 h resazurin, mean of three ± SD, read-out: Activity IC50 T. cruzi SN3 Strain E; for Selectivity Index T. cruzi SN3 Strain E: IC50 Vero cells/IC50 epimastigotes
Protocol: (§1) Three different T. cruzi […] strains—MHOM/Pe/2011/Arequipa, discrete typing unit (DTU) V [26]; IRHOD/CO/2008/SN3, DTU I [27]; TINF/CH/1956/Tulahuen, DTU VI [26]—were grown at 28 °C in Gibco® RPMI 1640 Medium supplemented as previously reported, and used for in vitro screening.
(§2) Trypanocidal activity against epimastigotes was tested as previously reported. In brief, 5 × 10^5 mL^−1 epimastigotes culture medium were treated by adding the compounds in serial dilutions from 100 to 0.2 µM in 96-well plates (200 µL·well^−1) for 48 h. BZN and untreated growth control were also included in triplicate. Later, 20 μL of resazurin sodium salt (Sigma-Aldrich, St. Louis, MO, USA) was added, and the plates were incubated for another 24 h. Finally, the absorbance of the wells was measured at 570/600 nm and related to the control. The trypanocidal activity was expressed as the IC50 (inhibitory concentration 50) value using GraphPad Prism 6 software.

[2] = tested on: T. cruzi Arequipa strain epimastigotes; test: Screening against extracellular epimastigotes, Arequipa strain (resazurin); assay type: cell-based, Trypanosoma cruzi; conditions: for IC50: Trypanosoma cruzi, epimastigotes, 48 h treatment + 24 h resazurin, mean of three ± SD, read-out: Activity IC50 T. cruzi Arequipa Strain E; for Selectivity Index T. cruzi Arequipa Strain E: IC50 Vero cells/IC50 epimastigotes
Protocol: as §1, §2

Vero cells = test: Cytotoxicity test on mammalian Vero cells (resazurin); assay type: cell-based; conditions: Chlorocebus sabaeus, 48 h treatment + 24 h resazurin, mean of three ± SD, read-out: Toxicity IC50 Vero Cell
Protocol: Cytotoxicity against mammalian Vero cells (EACC No. 84113001) was tested as previously reported. In brief, 1.25 × 10^4 Vero cells·mL^−1, cultured at 37 °C, were treated by adding the compounds in serial dilutions from 400 to 1 µM in 96-well plates (200 µL·well^−1) for 48 h. BZN and untreated controls were also included in triplicate. Later, 20 μL of resazurin sodium salt (Sigma-Aldrich) was added, and the plates were incubated for another 24 h. Finally, cell viability was determined following the same procedure as described to assess the trypanocidal activity in the epimastigotes.

[3] = tested on: T. cruzi Tulahuen strain epimastigotes; test: Screening against extracellular epimastigotes, Tulahuen strain (resazurin); assay type: cell-based, Trypanosoma cruzi; conditions: for IC50: Trypanosoma cruzi, TULAHUEN, epimastigotes, 48 h treatment + 24 h resazurin, mean of three ± SD, read-out: Activity IC50 T. cruzi Tulahuen Strain E; for Selectivity Index T. cruzi Tulahuen Strain E: IC50 Vero cells/IC50 epimastigotes
Protocol: as §1, §2

[4] = tested on: T. cruzi Arequipa strain trypomastigotes; test: Screening against bloodstream trypomastigotes, Arequipa strain (resazurin); assay type: cell-based, Trypanosoma cruzi
[5] = tested on: T. cruzi Arequipa strain amastigotes; test: Screening against intracellular amastigotes in Vero cells, Arequipa strain (Giemsa counting); assay type: cell-based, Trypanosoma cruzi
Protocol: (§3) TINF/CH/1956/Tulahuen, DTU VI [26]—were grown at 28 °C in Gibco® RPMI 1640 Medium supplemented as previously reported, and used for in vitro screening. Trypanocidal activity against amastigotes was tested as previously reported. In brief, bloodstream trypomastigotes (BTs), obtained by cardiac puncture from infected BALB/c mice, were used to infect 1 × 10^4 Vero cells·well^−1 in 24-well plates with rounded coverslips at a multiplicity of infection (MOI) ratio of 10:1. After 24 h of infection, non-internalized trypomastigotes were washed and the infected cells were treated by adding the compounds in serial dilutions from 50 to 0.5 µM in […] for 72 h. BZN and untreated growth controls were also included in triplicate. Later, the number of amastigotes and infected cells were determined in Giemsa stained preparations by analysing 500 host cells randomly distributed in microscopic fields. The trypanocidal activity was expressed as the IC50 using GraphPad Prism 6 software (version 6.07).

[6] = tested on: T. cruzi Tulahuen strain trypomastigotes; test: Screening against bloodstream trypomastigotes, Tulahuen strain (resazurin); assay type: cell-based, Trypanosoma cruzi
[7] = tested on: T. cruzi Tulahuen strain amastigotes; test: Screening against intracellular amastigotes in Vero cells, Tulahuen strain (Giemsa counting); assay type: cell-based, Trypanosoma cruzi
Protocol: as §3

[8] = IC50 Vero cells/IC50 trypomastigotes
[9] = IC50 Vero cells/IC50 amastigotes

SMILES | IC50 [1] [µM] | IC50 [2] [µM] | CC50 (Vero cells) [µM] | IC50 [3] [µM] | also measured
c1ccc(CNCCN(CCNCc2ccccn2)Cc2ccc3ccccc3c2)nc1 [Compound 1] | 27.1 ± 2.1 | 28.3 ± 2.4 | 58.1 ± 6 | 26 ± 2.7 | –
c1cncc(CNCCN(CCNCc2cccnc2)Cc2ccc3ccccc3c2)c1 [Compound 2] | 5.7 ± 0.5 | 2.9 ± 0.3 | 38.5 ± 4.1 | 15.8 ± 1.4 | Selectivity Index T. cruzi SN3 Strain E [1]: 6.7; Selectivity Index T. cruzi Arequipa Strain E [2]: 13.5; Selectivity Index T. cruzi Tulahuen Strain E [3]: 2.4; Selectivity Index T. cruzi Arequipa Strain T [4, 8]: 8.0; IC50 ([4]; Trypanosoma cruzi, trypomastigotes, 24 h + 4 h resazurin, mean of three ± SD): 4.8 ± 0.5 µM; Selectivity Index T. cruzi Arequipa Strain A [5, 9]: 6.2; IC50 ([5]; Trypanosoma cruzi, amastigotes in Vero cells, 72 h, mean of three ± SD): 6.2 ± 0.6 µM
c1ccc2cc(CN(CCNCc3ccncc3)CCNCc3ccncc3)ccc2c1 [Compound 3] | 21.8 ± 1.9 | 18.7 ± 1.6 | 25.8 ± 2.7 | 19.2 ± 1.7 | –
c1ccc2cc(CN(CCNCc3ccnc4ccccc34)CCNCc3ccnc4ccccc34)ccc2c1 [Compound 4, 1,7-Bis(4-quinolylmethyl)-4-(2-naphthylmethyl)-1,4,7-triazaheptane Pentahydrochloride] | 11 ± 1 | 25.2 ± 2.7 | 5.3 ± 0.4 | 22.6 ± 3.3 | –
O=C(NCCN(CCNC(=O)c1ccccn1)Cc1ccc2ccccc2c1)c1ccccn1 [Compound 6] | 10 ± 1.2 | 12 ± 1.1 | 63.2 ± 5.7 | 16.1 ± 1.7 | –
CN(C)c1cccc2c(S(=O)(=O)N(CCNCc3ccccn3)CCNCc3ccccn3)cccc12 [Compound 7] | 10.4 ± 1.1 | 11.5 ± 1.1 | 41.3 ± 3.7 | 12.1 ± 1.1 | –
CN(C)c1cccc2c(S(=O)(=O)N(CCNCc3cccnc3)CCNCc3cccnc3)cccc12 [Compound 8] | 36.4 ± 3.4 | 48.1 ± 3.9 | 136 ± 14.8 | 10 ± 1.1 | Selectivity Index T. cruzi SN3 Strain E [1]: 3.7; Selectivity Index T. cruzi Tulahuen Strain T [6, 8]: 11.2; IC50 ([6]; Trypanosoma cruzi, TULAHUEN, trypomastigotes, 24 h + 4 h resazurin, mean of three ± SD): 12.2 ± 1.2 µM; Selectivity Index T. cruzi Tulahuen Strain A [7, 9]: 8.0; IC50 ([7]; Trypanosoma cruzi, TULAHUEN, amastigotes in Vero cells, 72 h, mean of three ± SD): 17 ± 1.5 µM; Selectivity Index T. cruzi Arequipa Strain E [2]: 2.8; Selectivity Index T. cruzi Tulahuen Strain E [3]: 13.7
CN(C)c1cccc2c(S(=O)(=O)N(CCNC(=O)c3ccccn3)CCNC(=O)c3ccccn3)cccc12 [Compound 9] | 59.6 ± 6.2 | 12.4 ± 1.2 | 49.3 ± 5 | 39.3 ± 4.2 | –
O=S(=O)(c1cccc2ccccc12)N(CCNCc1ccccn1)CCNCc1ccccn1 [Compound 10] | 14.3 ± 1.8 | 15.2 ± 1.8 | 14.9 ± 1.3 | 12.9 ± 1.8 | –
CN(CCNCc1ccccn1)CCNCc1ccccn1 [Compound 11] | 21.4 ± 2 | 12.8 ± 1.7 | 23.3 ± 2.1 | 30 ± 2.7 | –
CN(CCNCc1ccncc1)CCNCc1ccncc1 [Compound 12] | 87.5 ± 9 | 104 ± 12.8 | 188 ± 20.4 | 95.2 ± 8.4 | –
O=S(=O)(c1cccc2cccnc12)N(CCNCc1ccccn1)CCNCc1ccccn1 [Compound 13] | 5.5 ± 4.9 | 12.7 ± 1.4 | 28.3 ± 2.4 | 21 ± 1.8 | –
c1cc2nc(c1)CNCCN(CCNCc1ccc3[nH]ncc3c1)CCNC2 [Compound 14] | 25.8 ± 2.7 | 18.3 ± 1.4 | 60.3 ± 7 | 22.4 ± 2.1 | –
c1cc(CNCCN2CCNCc3cccc(n3)CNCC2)nc(CNCCN2CCNCc3cccc(n3)CNCC2)c1 [Compound 16] | 155 ± 14.9 | 102 ± 9.8 | 136 ± 14.7 | 129 ± 14.7 | –
